Laboratory results from PubChem BioAssay AID1963873 (Molecular Pharmacology Branch, DTP, NCI, 2024).

System: 276233-004-R-J1-PDC KRAS spheroids with HUVEC/MSC, viability
Test: Anticancer human tumor 276233-004-R-J1-PDC patient-derived colon adenocarcinoma cell line growth inhibition [KRAS2]
Settings: for IC50: curve of first compound; for viability, T/C: stronger effect = lower value
How it was run: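 KRAS-mutant tumor cells were grown as spheroids with HUVEC endothelial cells and human MSCs as stroma. Targeted agents were tested alone and with KRAS pathway inhibitors. Doses started at or near clinical Cmax, or 10 microM, descending half-log.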

[1] = second compound 0.1 µM, first compound 0.0316 µM
[2] = second compound 0.1 µM, first compound 0.1 µM
[3] = second compound 0.1 µM, first compound 0.316 µM
[4] = second compound 0.1 µM, first compound 1 µM
[5] = second compound 0.1 µM, first compound 3.16 µM
[6] = second compound 0.1 µM, first compound 10 µM
[7] = second compound 0.316 µM, first compound 0.0316 µM
[8] = second compound 0.316 µM, first compound 0.1 µM
[9] = second compound 0.316 µM, first compound 0.316 µM
[10] = second compound 0.316 µM, first compound 1 µM
[11] = second compound 0.316 µM, first compound 3.16 µM
[12] = second compound 0.316 µM, first compound 10 µM
[13] = second compound 1 µM, first compound 0.0316 µM
[14] = second compound 1 µM, first compound 0.1 µM
[15] = second compound 1 µM, first compound 0.316 µM
[16] = second compound 1 µM, first compound 1 µM
[17] = second compound 1 µM, first compound 3.16 µM
[18] = second compound 1 µM, first compound 10 µM
[19] = second compound 3.16 µM, first compound 0.0316 µM
[20] = second compound 3.16 µM, first compound 0.1 µM
[21] = second compound 3.16 µM, first compound 0.316 µM
[22] = second compound 3.16 µM, first compound 1 µM
[23] = second compound 3.16 µM, first compound 3.16 µM
[24] = second compound 3.16 µM, first compound 10 µM
[25] = second compound 10 µM, first compound 0.0316 µM
[26] = second compound 10 µM, first compound 0.1 µM
[27] = second compound 10 µM, first compound 0.316 µM
[28] = second compound 10 µM, first compound 1 µM
[29] = second compound 10 µM, first compound 3.16 µM
[30] = second compound 10 µM, first compound 10 µM
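Also: cells exposed to agents for seven days before viability read.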
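For viability, T/C in this document: 100% = DMSO vehicle control wells and lower values mean fewer viable cells.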

Compound | IC50 (second compound 0.1 µM) | IC50 (second compound 0.316 µM) | IC50 (second compound 1 µM) | IC50 (second compound 3.16 µM) | IC50 (second compound 10 µM) | viability, T/C [1] | viability, T/C [2] | viability, T/C [3] | viability, T/C [4] | viability, T/C [5] | viability, T/C [7] | viability, T/C [8] | viability, T/C [9] | viability, T/C [10] | viability, T/C [11] | viability, T/C [13] | viability, T/C [14] | viability, T/C [15] | viability, T/C [16] | viability, T/C [17] | also measured
CC(C)NCC(C(=O)N1CCN(c2ncnc3c2C(C)CC3O)CC1)c1ccc(Cl)cc1 (stereo not given) + COc1cc2nc(C)nc(NC(C)c3cc(N)cc(C(F)(F)F)c3)c2cc1OC1CCOC1 | 1.78 µM | 1.11 µM | 1.24 µM | 0.7 µM | < 0.0316 µM | 75.5% | 79.9% | 73.6% | 56.6% | 35.8% | 89.3% | 78.6% | 62.7% | 57.8% | 32.6% | 67.4% | 76.3% | 70.3% | 55.4% | 26.2% | viability, T/C [6]: 51.2%; viability, T/C [12]: 38.8%; viability, T/C [18]: 27.4%; viability, T/C [19]: 80.7%; viability, T/C [20]: 75.6%; viability, T/C [21]: 78.2%; viability, T/C [22]: 37.3%; viability, T/C [23]: 29.9%; viability, T/C [24]: 38.8%; viability, T/C [25]: 35.6%; viability, T/C [26]: 16.1%; viability, T/C [27]: 13.9%; viability, T/C [28]: 7.24%; viability, T/C [29]: 4.57%; viability, T/C [30]: 6.8%
CC1(C)CCC(CN2CCN(c3ccc(C(=O)NS(=O)(=O)c4ccc(NCC5CCOCC5)c([N+](=O)[O-])c4)c(Oc4cnc5[nH]ccc5c4)c3)CC2)=C(c2ccc(Cl)cc2)C1 + COc1cc2nc(C)nc(NC(C)c3cc(N)cc(C(F)(F)F)c3)c2cc1OC1CCOC1 | > 10 µM | > 10 µM | > 10 µM | > 10 µM | < 0.0316 µM | 97.5% | 97% | 73.6% | 95.5% | 68.8% | 104% | 84.8% | 95.9% | 96.3% | 67% | 102% | 87.3% | 89.6% | 87.3% | 70.1% | viability, T/C [6]: 69.7%; viability, T/C [12]: 72.8%; viability, T/C [18]: 60.6%; viability, T/C [19]: 79.1%; viability, T/C [20]: 120%; viability, T/C [21]: 81.8%; viability, T/C [22]: 103%; viability, T/C [23]: 78.3%; viability, T/C [24]: 57.8%; viability, T/C [25]: 23.9%; viability, T/C [26]: 31.8%; viability, T/C [27]: 25%; viability, T/C [28]: 41.3%; viability, T/C [29]: 38.8%; viability, T/C [30]: 54.8%
CC1COCCN1c1cc(-c2ccnn2C)c2ccnc(-c3ccn[nH]3)c2n1 (stereo not given) + COc1cc2nc(C)nc(NC(C)c3cc(N)cc(C(F)(F)F)c3)c2cc1OC1CCOC1 | 1.47 µM | 0.706 µM | 1.86 µM | 0.474 µM | < 0.01 µM | 90.3% | 75.8% | 71.4% | 54.5% | 40.6% | 86.1% | 74.2% | 58.9% | 42.6% | 48.6% | 82% | 76.9% | 64.8% | 53.6% | 46.3% | viability, T/C (second compound 0.1 µM, first compound 0.01 µM): 81.3%; viability, T/C (second compound 0.316 µM, first compound 0.01 µM): 80%; viability, T/C (second compound 1 µM, first compound 0.01 µM): 94.5%; viability, T/C (second compound 3.16 µM, first compound 0.01 µM): 80.6%; viability, T/C [19]: 82.6%; viability, T/C [20]: 70%; viability, T/C [21]: 55.8%; viability, T/C [22]: 37.5%; viability, T/C [23]: 48.4%; viability, T/C (second compound 10 µM, first compound 0.01 µM): 37.4%; viability, T/C [25]: 46.5%; viability, T/C [26]: 45.8%; viability, T/C [27]: 34.1%; viability, T/C [28]: 36.9%; viability, T/C [29]: 24.8%
